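In this assay, cells in 96-well plates receive the compound at five concentrations for 48 hours. Endpoints are linearly interpolated between the surrounding concentrations. Abbreviation: GI50, concentration required for 50% inhibition of growth. Definition used: TGI = concentration required for complete inhibition of growth.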
What was measured:
Experiment in all cases: NCI tumour cell line growth inhibition, 48 h
786-0 renal = tested on: 786-0 renal
DLD-1 colon = tested on: DLD-1 colon
DMS 114 small cell lung = tested on: DMS 114 small cell lung
DMS 273 small cell lung = tested on: DMS 273 small cell lung
HCC-2998 colon = tested on: HCC-2998 colon
KM20L2 colon = tested on: KM20L2 colon
LXFL 529 NSCLC = tested on: LXFL 529 NSCLC
M19-MEL melanoma = tested on: M19-MEL melanoma
SNB-78 CNS = tested on: SNB-78 CNS
XF 498 CNS = tested on: XF 498 CNS
RXF-631 renal = tested on: RXF-631 renal
A498 renal = tested on: A498 renal
HOP-18 NSCLC = tested on: HOP-18 NSCLC
P388 leukemia = tested on: P388 leukemia
SN12K1 renal = tested on: SN12K1 renal
P388/ADR leukemia = tested on: P388/ADR leukemia

Row | Compound | TGI (786-0 renal) [µM] | TGI (DLD-1 colon) [µM] | TGI (DMS 114 small cell lung) [µM] | TGI (DMS 273 small cell lung) [µM] | TGI (HCC-2998 colon) [µM] | TGI (KM20L2 colon) [µM] | TGI (M19-MEL melanoma) [µM] | TGI (SNB-78 CNS) [µM] | TGI (A498 renal) [µM] | also measured
1 | Brc1c2nc3ccccc3nc2n2ccc3ccccc3c12 | > 100 | > 100 | > 100 | > 100 | > 100 | > 100 | > 100 | > 100 |  | TGI (LXFL 529 NSCLC): > 100 µM; TGI (XF 498 CNS): > 100 µM
2 | NC(=O)COc1c(Br)cc(Br)cc1Br | > 100 | > 100 | > 100 | > 100 | > 100 | > 100 | > 100 |  |  | TGI (RXF-631 renal): > 100 µM; TGI (XF 498 CNS): > 100 µM
3 | Nc1ccc2nc(Nc3ccc(Cl)c(Cl)c3)cnc2c1 | 33.1 | > 100 | 24.5 | 34.1 | 29.8 |  | 39.2 | > 100 |  | 
4 | CCCCCCCCCCCCCCCCNCC(O)CN (centres undefined) |  | 3.66 | 21 | 14.3 | 5.84 | 7.19 | 5.79 | 5.83 | 41.9 | TGI (HOP-18 NSCLC): 14 µM; TGI (P388 leukemia): 2.68 µM; TGI (SN12K1 renal): 3.44 µM; TGI (XF 498 CNS): 23.9 µM
5 | O=C(NC12CC3CC(CC(C3)C1)C2)C(=O)c1c[nH]c2ccc(Br)cc12 | 20.5 | 89 | > 100 | 17.6 | > 100 | > 100 |  | > 100 |  | TGI (HOP-18 NSCLC): 44.1 µM; TGI (LXFL 529 NSCLC): 37.3 µM
6 | C/C=C/c1cc2c(c(=O)o1)C(=O)[C@@H](O)[C@H](C)O2 |  | 20 | 19.1 | 29.7 | 24 | 30.5 | 27.2 | 42 | 16.9 | TGI (HOP-18 NSCLC): 31.9 µM; TGI (P388 leukemia): 7.15 µM; TGI (SN12K1 renal): 31.8 µM
7 | COc1cc(OCc2nc3cc(C(F)(F)F)ccc3nc2-c2ccccc2)cc(OC)c1OC | > 100 |  |  |  | > 100 |  |  |  | > 100 | 
8 | COc1cccc2c1C(=O)c1c(O)c3c(c(O)c1C2=O)C[C@@](O)(C(=O)CN1CCOCC1)C[C@@H]3OC1CC(N)C(O)C(C)O1 (some centres undefined) |  | > 74.4 | 21.8 | 20.5 | 23.3 | 71.5 | 18.1 |  | 31.1 | GI50 (HOP-18 NSCLC): 1.43 µM; TGI (HOP-18 NSCLC): 22 µM; TGI (P388 leukemia): 2.29 µM; TGI (P388/ADR leukemia): 71.7 µM; TGI (SN12K1 renal): 30.1 µM; TGI (XF 498 CNS): 8.33 µM
9 | CC(C)NCC(O)c1ccc(O)c2ncccc12 (centres undefined) | > 100 |  |  |  | > 100 |  |  |  | > 100 | 
10 | N/C(=N\NC(=O)c1nc2ccccc2s1)c1ccccn1 | 22.9 |  |  |  | > 61.5 |  |  |  | 36.1 | 
11 | Nc1nc2c(c(-c3ccccc3Cl)n1)COC/C2=C\c1ccccc1Cl | 33.1 |  |  |  | 34.6 |  |  |  | 30.6 | 
12 | Cc1c(-c2coc(-c3ccccc3)n2)c(=O)n(-c2ccccc2)n1C | > 100 | > 100 | > 100 | > 100 | > 100 | > 100 | > 100 | > 100 | > 100 | TGI (LXFL 529 NSCLC): > 100 µM; TGI (XF 498 CNS): 81.7 µM
13 | CC(=O)NNc1nc(C)c(C(/C=C/c2ccc([N+](=O)[O-])cc2)=N/NC(N)=O)s1 | > 100 |  |  |  | > 100 |  |  |  | > 100 | 
14 | N#CCCN(CCC#N)c1ccc(/C=C2\SC(=S)NC2=O)cc1 | > 100 |  |  |  | > 100 |  |  |  | > 100 | 
15 | CC1(C)Oc2ccc3c(=O)cc(-c4cccs4)oc3c2C1C(=O)O (centres undefined) | > 100 |  |  |  | > 100 |  |  |  | > 100 | 
16 | CCCCOc1c(C(=O)O)cc(Br)cc1C(=O)O | > 100 |  |  |  | > 100 |  |  |  | > 100 | 
17 | c1ccc(C(c2cccc3c2ccc2ccccc23)C(c2ccccc2)c2cccc3c2ccc2ccccc23)cc1 (centres undefined) | > 100 |  |  |  | > 100 |  |  |  | > 100 | 
18 | Clc1ccc2nc3n[nH]c(Cl)c3nc2c1 | > 100 |  |  |  | > 100 |  |  |  | > 100 | 

Row | Compound | TGI (786-0 renal) [µM] | TGI (DLD-1 colon) [µM] | TGI (DMS 114 small cell lung) [µM] | TGI (DMS 273 small cell lung) [µM] | TGI (HCC-2998 colon) [µM] | TGI (KM20L2 colon) [µM] | TGI (M19-MEL melanoma) [µM] | TGI (SNB-78 CNS) [µM] | TGI (A498 renal) [µM] | also measured
19 | CCOC(=O)C1(C#N)C2(C#N)C(N)=NC(ON=C(C)C)(ON=C(C)C)C12C#N (centres undefined) | > 100 |  |  |  | > 100 |  |  |  | > 100 | 
20 | N#CNC(=NCc1ccccc1)NCCc1c[nH]c2ccccc12 | 83.5 | > 100 | > 100 | > 100 | > 100 | > 100 | > 100 | > 100 |  | TGI (LXFL 529 NSCLC): > 100 µM; TGI (XF 498 CNS): > 100 µM
21 | Nc1ncnc2c1sc(=S)n2-c1ccccc1 | > 100 | > 100 | > 100 | > 100 | > 100 | > 100 | > 100 | > 100 | > 100 | TGI (HOP-18 NSCLC): > 100 µM; TGI (LXFL 529 NSCLC): > 100 µM; TGI (XF 498 CNS): > 100 µM
22 | Cc1ccc(/C(O)=C/c2nc3cccnc3[nH]c2=O)cc1 | > 100 |  |  |  | > 100 |  |  |  | > 100 | 
23 | COc1cc(NS(C)(=O)=O)ccc1NCc1cnc2ccc3[nH]cccc3c12 | 54 |  |  |  | 35.4 |  |  |  | 59.2 | 
24 | CC(=O)OC12CC(C(F)(F)F)(C(F)(F)F)OC1(OC(C)=O)CC(C(F)(F)F)(C(F)(F)F)O2 (centres undefined) | 12.4 |  |  |  | > 100 |  |  |  | 8.57 | 
25 | N=c1n(CC(=O)NC23CC4CC(CC(C4)C2)C3)c2ccccc2n1CC(=O)NC12CC3CC(CC(C3)C1)C2 | 3.19 | 3.5 | 3.67 | 3.35 | 2.65 | 3.2 | 3.09 | 6.38 | 3.15 | TGI (HOP-18 NSCLC): 4.5 µM; TGI (LXFL 529 NSCLC): 3.46 µM; TGI (XF 498 CNS): 2.93 µM
26 | CO[C@H]1CC[C@]2(C)C3=CC[C@@]4(C)C(CC[C@@H]4C(C)CC[C@@H](C)C(C)C)C(=CCC2C1)O3 (some centres undefined) | > 25 | > 25 | > 25 | > 25 | > 25 | > 25 | > 25 | > 25 | > 25 | TGI (HOP-18 NSCLC): > 25 µM; TGI (LXFL 529 NSCLC): > 25 µM; TGI (XF 498 CNS): > 25 µM
27 | COc1cc(S(=O)(=O)Nc2ccc(-c3csc(N4C(=O)C(Cl)C4c4cccc(Oc5ccccc5)c4)n3)cc2)ccc1Cl (centres undefined) | 26.5 |  |  |  | > 100 |  |  |  | 64.8 | 
28 | COC(=O)CCCC1(CCCC(=O)OC)CCCCCCCCC(CCCC(=O)OC)(CCCC(=O)OC)C(=O)C1=O | 33.5 |  |  |  | > 100 |  |  |  | > 100 | 
29 | Nc1nc(Nc2ccc(Cl)cc2)sc1C(=O)c1c[nH]c2ccccc12 | 15.6 |  |  |  | 24.1 |  |  |  | 23.3 | 
30 | NC(=S)Nc1ccc2c(c1)oc1ccccc12 | > 100 |  |  |  | > 100 |  |  |  | > 100 | 
31 | C[N+](C)(C)CCOC(=O)/C=C/c1cnc[nH]1 |  | > 500 | > 500 | > 500 | > 500 | > 500 | > 500 | > 500 | > 500 | TGI (HOP-18 NSCLC): > 500 µM; TGI (P388 leukemia): > 500 µM; TGI (P388/ADR leukemia): > 316 µM; TGI (SN12K1 renal): > 500 µM; TGI (XF 498 CNS): > 500 µM
32 | O=S(c1ccccc1)C1CC2CC3(CCC21O)OCCO3 (centres undefined) | > 100 |  |  |  | > 100 |  |  |  | > 100 | 
33 | Cn1c(=O)c2c(nc3n2CCC(=O)N3CCCCl)n(C)c1=O | > 100 |  |  |  | > 100 |  |  |  | > 100 | 
34 | Cc1ccc(S(=O)(=O)/N=C2/N(C)CCCS2(=O)=O)cc1 | > 100 |  |  |  | > 100 |  |  |  | > 100 | 
35 | CC(=O)Oc1c2c(c(OC(C)=O)c3c1n(C(C)=O)c1ccccc1n3C(C)=O)n(C(C)=O)c1ccccc1n2C(C)=O |  | 11.8 | 7.96 | 10.6 | 18.9 |  | 14.4 |  | 39 | TGI (LXFL 529 NSCLC): 16.5 µM
36 | COCCOC(C)C(=O)C(O)S(=O)(=O)O (centres undefined) | > 100 |  |  |  | > 100 |  |  |  | > 100 | 

— PubChem BioAssay (NCI)
